Test results from paper PMC10388362, “Fluorescent Ligands Enable Target Engagement Studies for the Intracellular Allosteric Binding Site of the Chemokine Receptor CXCR2” (Journal of Medicinal Chemistry, 2023).

Tests used:
CXCR2 [1] = target: T1, CXCR2 (Homo sapiens, UniProt P25025); assay: Fluorescence microscopy, displacement of 9a in HEK293 cells stably expressing CXCR2; assay type: cell-based; conditions: 9a 500 nM
T1 construct: Promega pNLF1-C (Nluc) #CXCR20TN00; host or cells: HEK293T, transient transfection (PEI)
T1 sequence (P25025 1-360): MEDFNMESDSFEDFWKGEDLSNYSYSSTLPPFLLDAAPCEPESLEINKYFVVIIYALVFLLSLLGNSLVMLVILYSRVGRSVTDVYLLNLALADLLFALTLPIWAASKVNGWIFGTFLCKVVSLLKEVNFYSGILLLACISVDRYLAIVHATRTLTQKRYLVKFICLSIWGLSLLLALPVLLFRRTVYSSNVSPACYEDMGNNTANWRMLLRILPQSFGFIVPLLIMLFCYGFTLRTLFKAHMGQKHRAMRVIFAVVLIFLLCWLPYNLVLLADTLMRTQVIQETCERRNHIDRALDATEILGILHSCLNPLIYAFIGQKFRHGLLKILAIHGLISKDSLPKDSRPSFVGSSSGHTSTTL
Experimental: For live cell microscopy, HEK293 cells stably expressing CXCR2 were seeded onto poly-D-lysine (PDL)-coated 8-well μ-slides (Ibidi) at a density of 1.5 × 10^5 cells per well and cultured overnight at 37 °C and 5% CO2. […] Afterward, the fluorescent CXCR2 ligand ((9a) final concentration 500 nM) was added for 60 min at 37 °C, and the cells were washed once with PBS before imaging. For immunostaining, the cells were first fixed with 4% paraformaldehyde solution, washed with PBS, and then blocked for 1 h with 10% goat serum and 1% fatty acid-free bovine serum albumin (BSA) in PBS at 37 °C. As primary antibody, anti-CXCR2 mouse IgG (R&D Systems, catalog # 48311, 1:100 in blocking solution) was added, and the cells were incubated for 1 h at 37 °C. After three washes with PBS, goat anti-mouse IgG (H+L) conjugated to FITC (Sigma-Aldrich, catalog # AP124F, 1:500 in blocking solution) was added for 1 h at 37 °C. The cells were again washed three times with PBS and counterstained with 4′,6-diamidin-2-phenylindole (DAPI) solution (0.1 μg/mL) for 15 min in the dark at room temperature, followed by three washes with PBS. […] Afterward, the fluorescent CXCR2 ligand ((9a) final concentration 500 nM) was added for 30 min at 37 °C and the cells were imaged. Microscopy was carried out on an AxioObserver.Z1 microscope (Carl Zeiss, Jena, Germany) equipped with an ApoTome imaging system and a Heating unit XL S using a Plan-Apochromat ×63/1.40 Oil objective (filter set 43 (red), 38 (green), 49 (blue)). Image processing and line scan analysis were performed with Zen blue Imaging software. The fluorescence intensity values were normalized to vehicle control.

CXCR2 [2] = target: T1, CXCR2; assay: Live cell NanoBRET competition binding with 9a; conditions: competition with 9a (50 nM), live HEK293T cells expressing CXCR2_Nluc
Experimental: HEK293T cells were transfected with the plasmid (5.5 μg) for CXCR2_Nluc using polyethylenimine (PEI) as transfection reagent (PEI/DNA ratio 3:1). After 24 h at 37 °C and 5% CO2, the cells were detached with DMEM and transferred to a white F-bottom 384-well plate (10,000 cells/well), which was coated with 5 μL/well poly-D-lysine (0.1 mg/mL, dissolved in water), and incubated for further 24 h at 37 °C and 5% CO2. Subsequently, the cells were washed with phosphate-buffered saline (Gibco DPBS, with CaCl2 and MgCl2). The assay medium (Gibco DMEM/F12, 15 mM HEPES, no phenol red supplemented with 5% FBS) was added and the cells were incubated at 37 °C for 30 min. […] To determine nonspecific binding, 5 μL of a solution of 3 dissolved in the assay medium (final assay concentration: 10 μM) were added.
Total, nonspecific and specific binding, which was calculated as a difference of total and nonspecific binding, were analyzed using the algorithms for one-site saturation binding in PRISM9.5 (GraphPad). To determine the inhibition constants (Ki) of the potential competitors, data were normalized to total and nonspecific binding and analyzed using the one-site-fit Ki equation in PRISM9.5 (GraphPad).

CXCR2 [3] = target: T1, CXCR2; assay: Membrane-based NanoBRET competition assay with 9a; assay type: binding; conditions: competition with 9a (50 nM), CXCR2_Nluc membranes
Experimental: Then, 20 μL of the membrane preparation (diluted in assay buffer, 2 μg total protein/well) was added and the plates were incubated for 90 min at 37 °C. Subsequently, 5 μL of a furimazine solution (final assay dilution: 1:5000 in the assay buffer) was added to each well (final assay volume: 35 μL). […] To determine the inhibition constants (Ki) of the nonlabeled ligands, data were analyzed using the one-site-fit Ki equation in PRISM9.5 (GraphPad).

CXCR2 [4] = target: T1, CXCR2; assay: Membrane-based NanoBRET competition kinetic assay with 9a; conditions: kinetic competitive binding with 9a (50 nM), CXCR2_Nluc membranes; read-out: residence time tr
Experimental: 2.5 μL of a solution of the fluorescent ligand (9a) diluted in the assay buffer (final assay concentration: 50 nM) and 2.5 μL of a solution of the competing nonlabeled ligands (final assay concentrations: […]) or 3 for determining nonspecific binding (final assay concentration: 25 μM) in the assay buffer were transferred to a 384-well plate. […] Thereafter, 20 μL of the membrane preparation (2 μg total protein/well) was added and BRET ratios were measured with a CLARIOstar microplate reader using 620/10 and 475/30 nm emission filters over time. Specific BRET ratios were calculated as a difference of total and nonspecific binding. The obtained data were analyzed using the kinetics of the competitive binding algorithm in PRISM9.5 (GraphPad) to determine competition binding kinetics.

Ki (CXCR2 [2]; read-out: Ki): 0.011 nM | Ki (CXCR2 [2]; read-out: pKi (converted)): 0.00933 nM | Ki (CXCR2 [3]; read-out: Ki): 0.09 nM | Ki (CXCR2 [3]; read-out: pKi (converted)): 0.0794 nM | residence time (CXCR2 [4]): 474 ± 59 min
SMILES: Cc1ccc([C@H](Nc2c(Nc3cccc(C(=O)N(C)C)c3O)c(=O)c2=O)C(C)(C)C)o1 [compound 3]
effect of preincubation on membrane-associated 9a fluorescence (CXCR2 [1]; fixed HEK293 cells stably expressing CXCR2, competitor 10 μM): virtually blunted all membrane-associated probe fluorescence | effect of preincubation on membrane-based 9a fluorescence (CXCR2 [1]; live cell imaging, HEK293 cells stably expressing CXCR2, competitor 10 μM): very strong reduction in membrane-based fluorescence
